Experimental data taken from US5861405A, “S-substituted 1,3,7-trialkyl-xanthine derivatives” (priority 1994, dated 1999).
“And” between values parts separate entries of the source, which are not always exact repeats. Equal values may be shown once. Read-outs that look alike come from different tables or passages of the source.

What was measured:
[1] = target: T1, rat A1 cortical receptors (Rattus norvegicus, UniProt P25099); assay: Radioligand binding, [3H]N6-phenylisopropyladenosine ([3H]PIA), rat cortical A1 receptors; conditions: for Ki: vs [3H]PIA (1 nM), read-out: Ki (A1); for inhibition at 10 µM: at 10^-5
T1 construct: Rat cerebral cortical membranes and striatal membranes were prepared; from tissue; host or cells: rat cerebral cortex membranes
T1 sequence (P25099 1-326): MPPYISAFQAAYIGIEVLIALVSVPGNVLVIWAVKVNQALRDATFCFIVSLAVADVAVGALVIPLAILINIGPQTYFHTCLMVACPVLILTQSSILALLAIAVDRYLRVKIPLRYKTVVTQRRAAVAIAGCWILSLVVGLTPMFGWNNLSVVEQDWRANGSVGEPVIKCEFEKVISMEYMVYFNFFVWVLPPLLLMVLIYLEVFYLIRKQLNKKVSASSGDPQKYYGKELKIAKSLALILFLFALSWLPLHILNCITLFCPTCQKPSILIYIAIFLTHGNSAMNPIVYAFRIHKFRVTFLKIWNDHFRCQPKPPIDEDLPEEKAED
Method: The 1,3,7-trialkyl-8-substituted xanthine compounds of the present invention were tested in a radioligand binding assay for affinity at adenosine receptors in rat brain membranes.
The final concentration of DMSO in the assay medium was generally 2%.
Membranes (~100 μg protein per tube) were incubated for 1.5 h at 37° C. in a total volume of 0.5 ml of 50 mM Tris hydrochloride, at pH 7.4. Test drugs were dissolved in DMSO and added in 10 μl aliquots, resulting in a final DMSO concentration of 2%. Bound and free radioligand were separated by addition of 3 ml of a buffer containing 50 mM Tris hydrochloride, pH 7.4, at 5° C., followed by vacuum filtration using a Brandel Cell Harvester (Brandel, Gaithersburg, Md.) and a Whatman GF/B glass fiber filter with additional washes totaling 9 ml of buffer. Non-specific binding was determined with 10 μM 2-chloroadenosine.
At least six different concentrations spanning three orders of magnitude, adjusted appropriately for the IC50 of each compound, were used.

[2] = target: rat striatal A2a receptors (Rattus norvegicus, UniProt P30543); assay: Radioligand binding, [3H]CGS 21680, rat striatal A2a receptors; design: Rat cerebral cortical membranes and striatal membranes were prepared; from tissue; host or cells: rat striatal membranes; conditions: for A2-selectivity: rat brain binding, this study; for potency or selectivity in binding, in words: rat A1 and A2 binding
Chain of rat striatal A2a receptors (P30543 whole entry): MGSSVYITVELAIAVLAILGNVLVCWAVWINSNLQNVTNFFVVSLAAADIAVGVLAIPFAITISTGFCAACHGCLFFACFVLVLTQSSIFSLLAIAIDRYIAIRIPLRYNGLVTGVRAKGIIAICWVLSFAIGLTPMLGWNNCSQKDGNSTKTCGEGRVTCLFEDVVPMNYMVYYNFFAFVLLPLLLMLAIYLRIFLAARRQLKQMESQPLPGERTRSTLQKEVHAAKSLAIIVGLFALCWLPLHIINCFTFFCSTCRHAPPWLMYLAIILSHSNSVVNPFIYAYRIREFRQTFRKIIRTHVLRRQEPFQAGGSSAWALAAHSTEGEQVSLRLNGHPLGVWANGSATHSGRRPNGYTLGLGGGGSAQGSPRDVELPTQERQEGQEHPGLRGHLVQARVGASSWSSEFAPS

[3] = Table I, vs [3H]CGS21680 (5 nM), rat striatal A2 receptors, read-out: Ki (A2a)
[4] = vs [3H]CGS 21680, read-out: Ki value / affinity at A2 receptors
[5] = 1.5 h, vs [3H]PIA, read-out: Percent displacement of specific binding (A1)
[6] = Table III, vs [3H]CGS21680 (5 nM), read-out: Ki (A2)

| Structure (SMILES) | Ki ([1]; Table I, rat A1 receptors) [nM] | A1/A2a ratio ([2]; Table I, ratio of Ki values) | Ki [2, 3] [nM] | further results |
| --- | --- | --- | --- | --- |
| COc1cccc(/C=C/c2nc3c([nH]2)c(=O)n(C)c(=O)n3C)c1 [Compound 19a] | 1830 | 4.8 | 378 ± 155 |  |
| CC(=O)Nc1cccc(/C=C/c2nc3c(c(=O)n(C)c(=O)n3C)n2C)c1 [Compound 23, 1,3,7-Trimethyl-8-(3-acetylaminostyryl)xanthine] | 9470 | 240 | 39 ± 21 | Ki [2, 4]: 39 nM and ≤ 50 nM |
| Cn1c(=O)c2[nH]c(/C=C/c3cccc(C(F)(F)F)c3)nc2n(C)c1=O [Compound 20a, 1,3-Dimethyl-8-(3-trifluoromethylstyryl)xanthine] | 881 ± 251 | 2.6 | 343 ± 58 |  |
| CCn1c(/C=C/c2cc(OC)c(OC)c(OC)c2)nc2c1c(=O)n(C)c(=O)n2C [Compound 44c, 7-Ethyl-1,3-trimethyl-8-[3,4,5-trimethoxystyryl]xanthine] | 6290 | 7.1 | 882 ± 239 |  |
| CCn1c(=O)c2[nH]c(/C=C/c3cc(OC)c(OC)c(OC)c3)nc2n(CC)c1=O [Compound 45a] | 852 ± 277 | 3.2 | 269 ± 7 |  |
| CN(C)c1ccc(/C=C/c2nc3c([nH]2)c(=O)n(C)c(=O)n3C)cc1 [Compound 30a, 1,3-Dimethyl-8-(4-dimethylaminostyryl)xanthine] | 3030 | 0.24 | 12800 |  |
| COc1cc(/C=C/c2nc3c(c(=O)n(C)c(=O)n3C)n2CCO)cc(OC)c1OC [Compound 44d] |  |  |  | inhibition at 10 µM [1, 5]: 26 ± 9%; inhibition at 10 µM ([2]; 1 h, at 10^-5, vs [3H]CGS21680, read-out: Percent displacement of specific binding (A2a)): 22% |
| COc1cccc(/C=C/c2nc3c(c(=O)n(C)c(=O)n3C)n2C)c1 [Compound 19b] | 5430 | 64 | 84.8 ± 24 | Ki [2, 4]: 85 nM |
| Cn1c(=O)c2c(nc(/C=C/C(=O)OC(C)(C)C)n2C)n(C)c1=O [C(O)OC(CH3)3 (Rβ = H), 8-(trans-2-tert-Butyloxycarbonylvinyl)-1,3,7-trimethylxanthine] |  |  |  | Ki ([1]; Table III): 18000 nM; A1/A2 ratio ([2]; Table III): 31; Ki [2, 6]: 590 nM |
| COc1cc(/C=C/c2nc3c(c(=O)n(C)c(=O)n3C)n2C)cc(OC)c1OC(C)=O [Compound 36] | 6330 | 93 | 68 ± 22 | A2-selectivity [2]: 93 fold |
| COc1cccc(/C=C/c2nc3c([nH]2)c(=O)n(C)c(=O)n3C)c1OC [Compound 31a, 1,3-Dimethyl-8-(2,3-dimethoxystyryl)xanthine] | 1600 | 2.7 | 600 ± 204 |  |
| Cn1c(=O)c2c(nc(/C=C/c3cccc(N(C(=O)OC(C)(C)C)C(=O)OC(C)(C)C)c3)n2C)n(C)c1=O [Compound 26, 1,3,7-Trimethyl-8-[3-[di-(tert-butyloxycarbonyl)amino]styryl]xanthine] | 10800 | 15 | 740 ± 77 | reduction of potency at A2-receptors ([2]; very bulky 3-position substituents): roughly 20 fold |
| COc1cc(/C=C/c2nc3c(c(=O)n(C)c(=O)n3C)n2C)cc(OC)c1OC/C=C/CNC(=O)OC(C)(C)C [Compound 42] |  | > 40 | 353 ± 62 | inhibition at 10 µM [1, 5]: 11 ± 5% |
| Cn1c(=O)c2c(nc(/C=C/c3cccc(F)c3)n2C)n(C)c1=O [Compound 27b] | 15800 | 190 | 83 ± 18 | A2-selectivity [2]: ≥ 200 fold |
| Cn1c(=O)c2c(nc(/C=C/C(=O)Nc3ccccc3)n2C)n(C)c1=O [C(O)NH-phenyl(Rβ = H)] |  |  |  | Ki ([1]; Table III): 50000 nM; A1/A2 ratio ([2]; Table III): 19.8; Ki [2, 6]: 2530 nM |
| CCCn1c(=O)c2[nH]c(/C=C/c3cc(OC)c(OC)cc3OC)nc2n(CCC)c1=O [Compound 56a] | 143 ± 19 | 0.44 | 323 ± 74 |  |
| C#CCn1c(/C=C/c2cc(OC)c(OC)c(OC)c2)nc2c1c(=O)n(C)c(=O)n2C [Compound 44e] | 4040 | 7.7 | 525 ± 220 |  |

| Structure (SMILES) | Ki ([1]; Table I, rat A1 receptors) [nM] | A1/A2a ratio ([2]; Table I, ratio of Ki values) | Ki [2, 3] [nM] | further results |
| --- | --- | --- | --- | --- |
| Cn1c(=O)c2c(nc(/C=C/c3ccccc3)n2C)n(C)c1=O [Compound 15b] | 3890 |  |  |  |
| CCn1c(=O)c2c(nc(/C=C/c3cc(OC)c(OC)c(OC)c3)n2C)n(CC)c1=O [Compound 45b] | 2790 |  |  |  |
| COc1cccc2cc(-c3nc4c(c(=O)n(C)c(=O)n4C)n3C)oc12 [Compound 58b] |  |  |  | Ki ([2]; Table IV, vs [3H]CGS21680 (5 nM), read-out: Ki (A2)): 4740 nM |
| Cn1c(=O)c2c(nc(/C=C/c3cccc(N)c3)n2C)n(C)c1=O [Compound 22b, 1,3,7-Trimethyl-8-(3-aminostyryl)xanthine] | 1690 | 30 | 57 ± 3 | A2-selectivity [2]: 30 fold |
| CCCn1c(=O)c2c(nc(/C=C/c3cc(OC)c(OC)cc3OC)n2C)n(CCC)c1=O [Compound 56b] | 689 ± 239 |  | 327 ± 52 | A1/A2a ratio ([2]; rat, brain membranes): 2.1 |
| Cn1c(=O)c2c(nc(/C=C/c3cccc([N+](=O)[O-])c3)n2C)n(C)c1=O [Compound 21b, 1,3,7-Trimethyl-8-(3-nitrostyryl)xanthine] | 2140 | 11 | 195 ± 44 |  |
| Cn1c(=O)c2[nH]c(/C=C/c3cc(F)cc(F)c3)nc2n(C)c1=O [Compound 34a] | 2330 | 6.4 | 366 ± 77 |  |
| COc1cc(/C=C/c2nc3c(c(=O)n(C)c(=O)n3C)n2CCc2ccccc2)cc(OC)c1OC [Compound 44f] |  |  |  | inhibition at 10 µM [1, 5]: 32 ± 9% |
| CCCn1c(=O)c2c(nc(/C=C/c3cc(F)cc(F)c3)n2C)n(CCC)c1=O [Compound 54b] | 382 ± 40 | 7.2 | 53 ± 15 | Ki [2, 4]: ≤ 50 nM |
| Cn1c(=O)c2[nH]c(/C=C/c3ccccc3)nc2n(C)c1=O [Compound 15a] | 654 ± 170 | 2.3 | 291 ± 40 | potency or selectivity in binding, in words [2]: non-selective |
| CCCn1c(=O)c2c(nc(/C=C/c3cccc(Cl)c3)n2C)n(CCC)c1=O [Compound 51b] | 874 ± 222 |  |  |  |
| COc1cc(/C=C/c2nc3c(c(=O)n(C)c(=O)n3C)n2C)cc(OC)c1OCCCCNC(=O)OC(C)(C)C [Compound 39, 1,3,7-Trimethyl-8-[3,5-dimethoxy-4-[4-(tert-butyloxycarbonylamino)butyloxy]styryl]xanthine] | 11000 | 42 | 265 ± 105 |  |
| COc1ccc(/C=C/c2nc3c(c(=O)n(C)c(=O)n3C)n2C)c(OC)c1OC [Compound 43b] | 6920 | 34 | 206 ± 81 |  |
| Cn1c(=O)c2[nH]c(/C=C/c3cccc(O)c3)nc2n(C)c1=O [Compound 18] | 702 ± 40 | 2.4 | 303 ± 55 | potency or selectivity in binding, in words [2]: equipotent with the methoxy compound, 19b, at A2 -receptors and more potent at A1 -receptors |
| COc1cc(/C=C/c2nc3c([nH]2)c(=O)n(C)c(=O)n3C)cc(OC)c1 [Compound 33a, 1,3-Dimethyl-8-(3,5-dimethoxystyryl)xanthine] | 3040 | 25 | 120 ± 36 |  |
| CN(C)c1ccc(/C=C/c2nc3c(c(=O)n(C)c(=O)n3C)n2C)cc1 [Compound 30b] |  | > 1 | 9270 | inhibition at 30 µM ([1]; 1.5 h, at 3 × 10^-5, vs [3H]PIA, read-out: Percent displacement of specific binding (A1)): 5.6%; potency or selectivity in binding, in words [2]: displayed A2 -selectivity |
| Cn1c(=O)c2c(nc(/C=C/c3cccc(NC(=O)OC(C)(C)C)c3)n2C)n(C)c1=O [Compound 25, 1,3,7-Trimethyl-8-(3-tert-butyloxycarbonylaminostyryl)xanthine] |  |  | 784 ± 100 |  |
